Source: a polymer gas permeability compilation

Row | SMILES | CO2 permeability | N2 permeability | O2 permeability | H2 permeability
1 | *C(Cl)CCCC(*)S(=O)(=O)Cl (repeat unit) | – | 0.955 Barrer | 3.29 Barrer | 13.3 Barrer
2 | *CC(*)OC(C)=O (repeat unit) | – | – | 0.488 Barrer | 9.19 Barrer
3 | *CC(CCl)O* (repeat unit) | – | 0.44 Barrer | 1.05 Barrer | 8.9 Barrer
4 | *OC1OC(CO[N+](=O)[O-])C(OC2OC(O[N+](=O)[O-])C(O*)C(O)C2O[N+](=O)[O-])C(O)C1O[N+](=O)[O-] (repeat unit) | – | 0.12 Barrer | 0.6 Barrer | 2 Barrer
5 | *Oc1ccc(Oc2ccc3c(c2)-c2nc4cc(Oc5ccc6nc7n(c6c5)C(=O)c5cc(*)ccc5-7)ccc4n2C3=O)cc1 (repeat unit) | – | 0.036 Barrer | 0.23 Barrer | 5.34 Barrer
6 | *Oc1ccc(S(=O)(=O)c2ccc(Oc3c(C)cc(C(C)(C)c4cc(C)c(*)c(C)c4)cc3C)cc2C(O)(C(F)(F)F)C(F)(F)F)c(C(O)(C(F)(F)F)C(F)(F)F)c1 (repeat unit) | 30 Barrer | 1.5 Barrer | 8.5 Barrer | –
7 | *c1c(C)cc(-c2cc(C)c(N3C(=O)c4ccc(C(=O)Oc5ccc(C(c6ccc(OC(=O)c7ccc8c(c7)C(=O)N(*)C8=O)cc6)(C(F)(F)F)C(F)(F)F)cc5)cc4C3=O)c(C)c2)cc1C (repeat unit) | – | 0.549 Barrer | 3.02 Barrer | 38 Barrer
8 | *c1ccc(Oc2ccc(C(C)(C)c3ccc(Oc4ccc(N5C(=O)c6ccc(Oc7ccc8c(c7)C(=O)N(*)C8=O)cc6C5=O)cc4)cc3)cc2)cc1 (repeat unit) | 2.7 Barrer | 0.07 Barrer | 0.49 Barrer | 8 Barrer
9 | *c1ccc2c(c1)-c1nc3ccc(-c4ccc5c(c4)nc4n5C(=O)c5cc(C(c6ccc7c(c6)C(=O)N(c6cc(C(c8ccc(O)c(N9C(=O)c%10ccc(C(*)(C(F)(F)F)C(F)(F)F)cc%10C9=O)c8)(C(F)(F)F)C(F)(F)F)ccc6O)C7=O)(C(F)(F)F)C(F)(F)F)ccc5-4)cc3n1C2=O (repeat unit) | 15 Barrer | 0.53 Barrer | 3.2 Barrer | –

The remaining lines, values ahead:

Row | CO2 permeability | N2 permeability | O2 permeability | H2 permeability | SMILES
10 | 120 Barrer | 9.1 Barrer | 29 Barrer | – | *C(=C(*)c1ccc([Si](C)(C)CCCCCCCC)cc1)c1ccc(C(C)C)cc1 (repeat unit)
11 | 170 Barrer | 11 Barrer | 34 Barrer | – | *C(=C(*)c1ccc([Si](C)(C)CCCCCCCC)cc1)c1ccccc1 (repeat unit)
12 | 7.7 Barrer | 0.26 Barrer | 2 Barrer | – | *Oc1ccc(S(=O)(=O)c2ccc(Oc3ccc(C(C)(C)c4ccc(*)c(C(OC)(C(F)(F)F)C(F)(F)F)c4)cc3C(OC)(C(F)(F)F)C(F)(F)F)cc2)cc1 (repeat unit)
13 | – | 0.026 Barrer | 0.22 Barrer | 6.88 Barrer | *Oc1ccc2c(c1)-c1nc3cc(Oc4ccc5nc6n(c5c4)C(=O)c4cc(*)ccc4-6)ccc3n1C2=O (repeat unit)
14 | – | 2.63 Barrer | 11.8 Barrer | 108 Barrer | *c1c(C)c(C)c(N2C(=O)c3ccc(C(=O)c4ccc5c(c4)C(=O)N(*)C5=O)cc3C2=O)c(C)c1C (repeat unit)
15 | – | 1.02 Barrer | 5.69 Barrer | 47.1 Barrer | *c1c(C)cc(C)c(N2C(=O)c3ccc(S(=O)(=O)c4ccc5c(c4)C(=O)N(*)C5=O)cc3C2=O)c1C (repeat unit)
16 | 88.2 Barrer | 9.4 Barrer | 20.2 Barrer | – | *c1cc(CCCCCCCCCCCC)c(*)s1 (repeat unit)
17 | 138 Barrer | 5.2 Barrer | 34 Barrer | – | *c1ccc(-c2ccc(N3C(=O)c4ccc(C(c5ccc6c(c5)C(=O)N(*)C6=O)(C(F)(F)F)C(F)(F)F)cc4C3=O)c(N)c2)cc1N (repeat unit)
18 | 0.26 Barrer | – | – | 2.56 Barrer | *c1ccc2c(c1)C(=O)N(c1ccc(Oc3ccc(N4C(=O)c5ccc(-c6nc7ccc(Cc8ccc9nc(*)oc(=O)c9c8)cc7c(=O)o6)cc5C4=O)cc3)cc1)C2=O (repeat unit)
